{"source": "patent US7256180B2", "about": "(priority 2000, dated 2007)", "key": {"[1]": {"test_system": "HSV-1 (strain CI)", "assay_type": "in vivo, mice"}, "[2]": {"test_system": "HSV-1", "assay_type": "cell-based, Herpes Simplex Virus 1", "conditions": "BHK cells, oligonucleotide 3.0 μM"}, "[3]": {"test_system": "HSV-1 virus (strain L2)", "assay_type": "cell-based, Herpes Simplex Virus 1", "conditions": "Vero cells, 24 hours"}}, "note": "Where two headings read alike, the source gives them in different places. {C11P} = undecylphosphate group; {Acr} = acridine group"}
{"substance": "Free Anti-Influenza: AGCAAAAGCAGG, equivalently modified control (5' {C11P}, 3' {Acr}, sugars by position and backbone not given here)", "values": [{"measurement": "Animals Survived/No. of Animals in group, Exp. 1", "setting": "[1]; mouse, in vivo, iv", "result": "0/9"}, {"measurement": "Animals Survived/No. of Animals in group, Exp. 2", "setting": "[1]; mouse, in vivo, iv", "result": "1/10"}, {"measurement": "Animals Survived/No. of Animals in group, Exp. 3", "setting": "[1]; mouse, in vivo, iv", "result": "0/10"}, {"measurement": "% Survival", "setting": "[1]; over Exp. 1-3", "result": 7.0, "unit": "%"}, {"measurement": "HSV-1 Infectious Titre (CPE50/ml) (n = 7)", "setting": "[2]", "result": "9 (±2) × 10^3 CPE50/ml"}, {"measurement": "HSV-1 Infectious Titre (CPE50/ml) (n = 7)", "setting": "[3]; oligo conc. 0.2 μM", "result": "1.1 (±0.4) × 10^6 CPE50/ml"}, {"measurement": "HSV-1 Infectious Titre (CPE50/ml) (n = 7)", "setting": "[3]; oligo conc. 1.0 μM", "result": "0.9 (±0.2) × 10^6 CPE50/ml"}, {"measurement": "HSV-1 Infectious Titre (CPE50/ml) (n = 7)", "setting": "[3]; oligo conc. 5.0 μM", "result": "0.6 (±0.3) × 10^6 CPE50/ml"}]}
